From PubChem BioAssay (NCI)
“And” between values parts separate entries of the source, which are not always exact repeats. Equal entries are not always repeated.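 Protocol summary: plate cells (96-well), add compound at 5 concentrations, incubate 48 h, interpolate endpoints linearly. GI50 = concentration required for 50% inhibition of growth. TGI: total growth inhibition.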

Assays:
Assay in all cases: DTP human tumour cell line panel, 48 h
786-0 renal = tested on: 786-0 renal
A498 renal = tested on: A498 renal
A549 NSCLC = tested on: A549 NSCLC
ACHN renal = tested on: ACHN renal
BT-549 breast = tested on: BT-549 breast
CAKI-1 renal = tested on: CAKI-1 renal
CCRF-CEM leukemia = tested on: CCRF-CEM leukemia
COLO 205 colon = tested on: COLO 205 colon
DU-145 prostate = tested on: DU-145 prostate
EKVX NSCLC = tested on: EKVX NSCLC
HCC-2998 colon = tested on: HCC-2998 colon
HCT-116 colon = tested on: HCT-116 colon
HCT-15 colon = tested on: HCT-15 colon
HL-60(TB) leukemia = tested on: HL-60(TB) leukemia
HOP-62 NSCLC = tested on: HOP-62 NSCLC
HS 578T breast = tested on: HS 578T breast
HT29 colon = tested on: HT29 colon
IGROV1 ovarian = tested on: IGROV1 ovarian
K-562 leukemia = tested on: K-562 leukemia
KM12 colon = tested on: KM12 colon
LOX IMVI melanoma = tested on: LOX IMVI melanoma
M14 melanoma = tested on: M14 melanoma
MALME-3M melanoma = tested on: MALME-3M melanoma
MCF7 breast = tested on: MCF7 breast
MDA-MB-231 breast = tested on: MDA-MB-231 breast
MDA-MB-435 = tested on: MDA-MB-435
MDA-N = tested on: MDA-N
MOLT-4 leukemia = tested on: MOLT-4 leukemia
NCI-H226 lung = tested on: NCI-H226 lung
NCI-H23 lung = tested on: NCI-H23 lung
NCI-H460 lung = tested on: NCI-H460 lung
NCI-H522 lung = tested on: NCI-H522 lung
NCI/ADR-RES ovarian = tested on: NCI/ADR-RES ovarian
OVCAR-3 ovarian = tested on: OVCAR-3 ovarian
OVCAR-4 ovarian = tested on: OVCAR-4 ovarian
OVCAR-5 ovarian = tested on: OVCAR-5 ovarian
OVCAR-8 ovarian = tested on: OVCAR-8 ovarian
PC-3 prostate = tested on: PC-3 prostate
RPMI-8226 leukemia = tested on: RPMI-8226 leukemia
RXF 393 renal = tested on: RXF 393 renal
SF-268 CNS = tested on: SF-268 CNS
SF-295 CNS = tested on: SF-295 CNS
SF-539 CNS = tested on: SF-539 CNS
SK-MEL-2 melanoma = tested on: SK-MEL-2 melanoma
SK-MEL-28 melanoma = tested on: SK-MEL-28 melanoma
SK-MEL-5 melanoma = tested on: SK-MEL-5 melanoma
SK-OV-3 ovarian = tested on: SK-OV-3 ovarian
SN12C renal = tested on: SN12C renal
SNB-19 CNS = tested on: SNB-19 CNS
SNB-75 CNS = tested on: SNB-75 CNS
SW-620 colon = tested on: SW-620 colon
T-47D breast = tested on: T-47D breast
TK-10 renal = tested on: TK-10 renal
U251 CNS = tested on: U251 CNS
UACC-257 melanoma = tested on: UACC-257 melanoma
UACC-62 melanoma = tested on: UACC-62 melanoma
UO-31 renal = tested on: UO-31 renal

O=C1/C(=C/c2ccc(O)c([N+](=O)[O-])c2)CCC/C1=C\c1ccc(O)c([N+](=O)[O-])c1
GI50 (786-0 renal): 43.7 µM
TGI (786-0 renal): 25.5 µM and > 100 µM
TGI (A498 renal): 13.1 µM
GI50 (A549 NSCLC): 25.5 µM
TGI (A549 NSCLC): 32.4 µM and 91.7 µM
GI50 (ACHN renal): 20.4 µM
TGI (ACHN renal): 14.8 µM and 38.5 µM
GI50 (BT-549 breast): 2.83 µM
TGI (BT-549 breast): 36.6 µM and 9.46 µM
TGI (CAKI-1 renal): 20.4 µM
GI50 (CCRF-CEM leukemia): 14.9 µM
TGI (CCRF-CEM leukemia): 50 µM and 56.2 µM
GI50 (COLO 205 colon): 20.8 µM
TGI (COLO 205 colon): 31.9 µM and 40.6 µM
GI50 (DU-145 prostate): 2.99 µM
TGI (DU-145 prostate): 20.3 µM and 15.3 µM
GI50 (EKVX NSCLC): 15 µM
TGI (EKVX NSCLC): 50 µM and 28.8 µM
TGI (HCC-2998 colon): 16 µM
GI50 (HCT-116 colon): 26.8 µM
TGI (HCT-116 colon): 18.7 µM and > 100 µM
GI50 (HCT-15 colon): 9.77 µM
TGI (HCT-15 colon): 36.5 µM and 37.2 µM
GI50 (HL-60(TB) leukemia): 16.7 µM
TGI (HL-60(TB) leukemia): 50 µM and 45.1 µM
GI50 (HOP-62 NSCLC): 25 µM
TGI (HOP-62 NSCLC): 28 µM and > 100 µM
TGI (HS 578T breast): 60.3 µM
GI50 (HT29 colon): 19 µM
TGI (HT29 colon): 30.7 µM and 37.6 µM
GI50 (IGROV1 ovarian): 15.2 µM
TGI (IGROV1 ovarian): 17 µM and 28.5 µM
GI50 (K-562 leukemia): 20.9 µM
TGI (K-562 leukemia): 50 µM and 64.4 µM
GI50 (KM12 colon): 1.97 µM
TGI (KM12 colon): 18.4 µM and 9.42 µM
TGI (LOX IMVI melanoma): 23.2 µM
GI50 (M14 melanoma): 14.6 µM
TGI (M14 melanoma): 31.8 µM and 29.7 µM
GI50 (MALME-3M melanoma): 12.3 µM
TGI (MALME-3M melanoma): 26.3 µM and 26.2 µM
GI50 (MCF7 breast): 15.8 µM
TGI (MCF7 breast): 50 µM and 63 µM
GI50 (MDA-MB-231 breast): 16.4 µM
TGI (MDA-MB-231 breast): 50 µM and 39.3 µM
GI50 (MDA-MB-435): 1.53 µM
TGI (MDA-MB-435): 21.3 µM and 5.35 µM
GI50 (MDA-N): 25.9 µM
TGI (MDA-N): 19.9 µM and > 100 µM
GI50 (MOLT-4 leukemia): 17.4 µM
TGI (MOLT-4 leukemia): 50 µM and 47 µM
GI50 (NCI-H226 lung): 33.7 µM
TGI (NCI-H226 lung): 24.7 µM and > 100 µM
GI50 (NCI-H23 lung): 8.14 µM
TGI (NCI-H23 lung): 32.6 µM and 25.2 µM
TGI (NCI-H460 lung): 31.6 µM
GI50 (NCI-H522 lung): 1.49 µM
TGI (NCI-H522 lung): 22.6 µM and 3.08 µM
GI50 (NCI/ADR-RES ovarian): 16.3 µM
TGI (NCI/ADR-RES ovarian): 50 µM and 41.7 µM
GI50 (OVCAR-3 ovarian): 2.54 µM
TGI (OVCAR-3 ovarian): 17.1 µM and > 100 µM
GI50 (OVCAR-4 ovarian): 4.34 µM
TGI (OVCAR-4 ovarian): 50 µM and > 100 µM
GI50 (OVCAR-5 ovarian): 21.9 µM
TGI (OVCAR-5 ovarian): 33.8 µM and 39.5 µM
GI50 (OVCAR-8 ovarian): 16 µM
TGI (OVCAR-8 ovarian): 50 µM and 34.7 µM
GI50 (PC-3 prostate): 9.12 µM
TGI (PC-3 prostate): 50 µM and 22.8 µM
GI50 (RPMI-8226 leukemia): 10 µM
TGI (RPMI-8226 leukemia): 50 µM and 32.6 µM
GI50 (RXF 393 renal): 1.53 µM
TGI (RXF 393 renal): 19.6 µM and 5.91 µM
TGI (SF-268 CNS): 19.9 µM
TGI (SF-295 CNS): 50 µM and > 100 µM
TGI (SF-539 CNS): 50 µM
GI50 (SK-MEL-2 melanoma): 13 µM
TGI (SK-MEL-2 melanoma): 32.2 µM and 27.2 µM
GI50 (SK-MEL-28 melanoma): 19.9 µM
TGI (SK-MEL-28 melanoma): 20.3 µM and 45 µM
GI50 (SK-MEL-5 melanoma): 14.7 µM
TGI (SK-MEL-5 melanoma): 17.4 µM and 31.5 µM
GI50 (SK-OV-3 ovarian): 22.2 µM
TGI (SK-OV-3 ovarian): 50 µM and > 100 µM
GI50 (SN12C renal): 46.2 µM
TGI (SN12C renal): 26.2 µM and > 100 µM
GI50 (SNB-19 CNS): 17.1 µM
TGI (SNB-19 CNS): 28.7 µM and 35.2 µM
TGI (SNB-75 CNS): 6.65 µM
GI50 (SW-620 colon): 30.1 µM
TGI (SW-620 colon): 50 µM and 99.2 µM
TGI (T-47D breast): 47.5 µM
GI50 (TK-10 renal): 38.8 µM
TGI (TK-10 renal): 50 µM and > 100 µM
GI50 (U251 CNS): 14 µM
TGI (U251 CNS): 18.3 µM and 26.9 µM
GI50 (UACC-257 melanoma): 15.5 µM
TGI (UACC-257 melanoma): 44.3 µM and 37.7 µM
GI50 (UACC-62 melanoma): 14.1 µM
TGI (UACC-62 melanoma): 15.5 µM and 37.2 µM
GI50 (UO-31 renal): 20.7 µM
TGI (UO-31 renal): 25.5 µM and 39.5 µM
